Test results reported in ChEMBL document CHEMBL1201862, “PubChem BioAssay data set” (2004).
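Step 1: Grow cells in 96-well plates. Step 2: Expose to compound for 48 hours at 5 concentrations. Step 3: Interpolate endpoints linearly; if unreached, use highest concentration. GI50: concentration for 50% inhibition of growth.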 Active and inactive are the calls of the source. Cut-off read from the data, not from the text of the source: active = GI50 up to about 1.1 µM and inactive = higher.

Tests used:
Test in all cases: DTP human tumour cell line panel, 48 h
SK-MEL-5 = test system: SK-MEL-5
CCRF-CEM = test system: CCRF-CEM
SF-295 = test system: SF-295
SNB-78 = test system: SNB-78
HOP-18 = test system: HOP-18
M14 = test system: M14
LXFL 529 = test system: LXFL 529
UACC-62 = test system: UACC-62
HL-60 = test system: HL-60
HCT-15 = test system: HCT-15
TK-10 = test system: TK-10
SF-268 = test system: SF-268
EKVX = test system: EKVX
HOP-62 = test system: HOP-62
OVCAR-5 = test system: OVCAR-5
OVCAR-8 = test system: OVCAR-8
HT-29 = test system: HT-29
SNB-19 = test system: SNB-19
SK-MEL-28 = test system: SK-MEL-28
KM-20L2 = test system: KM-20L2
XF498 = test system: XF498
SW-620 = test system: SW-620
CAKI-1 = test system: CAKI-1
U-251 = test system: U-251
M19-MEL = test system: M19-MEL
HOP-92 = test system: HOP-92
UO-31 = test system: UO-31
MOLT-4 = test system: MOLT-4
SR = test system: SR
NCI-H460 = test system: NCI-H460
HCT-116 = test system: HCT-116
IGROV-1 = test system: IGROV-1
RXF 631 = test system: RXF 631
A549 = test system: A549
SK-OV-3 = test system: SK-OV-3
SN12C = test system: SN12C
NCI-H23 = test system: NCI-H23
SNB-75 = test system: SNB-75
SF-539 = test system: SF-539
Malme-3M = test system: Malme-3M
OVCAR-3 = test system: OVCAR-3
KM12 = test system: KM12
LOX IMVI = test system: LOX IMVI
RPMI-8226 = test system: RPMI-8226
NCI-H226 = test system: NCI-H226
DLD-1 = test system: DLD-1
DMS-114 = test system: DMS-114
NCI-H522 = test system: NCI-H522
K562 = test system: K562
ACHN = test system: ACHN
RXF 393 = test system: RXF 393
SK-MEL-2 = test system: SK-MEL-2
786-0 = test system: 786-0
DMS-273 = test system: DMS-273
OVCAR-4 = test system: OVCAR-4
COLO 205 = test system: COLO 205
UACC-257 = test system: UACC-257
HCC 2998 = test system: HCC 2998

Measured: GI50

Cc1noc2cccc(OCc3ccccc3)c12
inactive: SK-MEL-5 17.1 µM | CCRF-CEM 13.5 µM | SF-295 72.4 µM | SNB-78 80.5 µM | HOP-18 > 100 µM | M14 92.5 µM | LXFL 529 49 µM | UACC-62 > 100 µM | HL-60 17.3 µM | TK-10 47 µM | SF-268 > 100 µM | EKVX 35.7 µM | HOP-62 > 100 µM | OVCAR-5 25.6 µM | OVCAR-8 67.1 µM | HT-29 37.2 µM | SNB-19 91 µM | SK-MEL-28 > 100 µM | KM-20L2 65.5 µM | XF498 56.9 µM | SW-620 > 100 µM | CAKI-1 38.1 µM | U-251 93.8 µM | M19-MEL 60.1 µM | HOP-92 43.3 µM | UO-31 15 µM | MOLT-4 39.5 µM | SR 34.6 µM | NCI-H460 > 100 µM | HCT-116 48.1 µM | IGROV-1 60.1 µM | RXF 631 85.7 µM | A549 44.1 µM | SK-OV-3 > 100 µM | SN12C > 100 µM | NCI-H23 > 100 µM | SNB-75 30.6 µM | SF-539 > 100 µM | Malme-3M > 100 µM | OVCAR-3 94.8 µM | KM12 91.2 µM | LOX IMVI 51.3 µM | RPMI-8226 30.7 µM | NCI-H226 46.5 µM | DLD-1 64.9 µM | DMS-114 29 µM | NCI-H522 13.2 µM | K562 43 µM | ACHN 50.7 µM | RXF 393 30.8 µM | SK-MEL-2 23.8 µM | 786-0 99.3 µM | DMS-273 52 µM | OVCAR-4 82.8 µM | COLO 205 52.1 µM | UACC-257 53.8 µM
50.8 µM: HCT-15

c1cncc(O[Si](Oc2cccnc2)(Oc2cccnc2)Oc2cccnc2)c1
> 100 µM: HCT-15
inactive: SK-MEL-5 > 100 µM | SF-295 > 100 µM | SNB-78 > 100 µM | HOP-18 > 100 µM | M14 > 100 µM | UACC-62 > 100 µM | TK-10 > 100 µM | EKVX > 100 µM | OVCAR-5 > 100 µM | OVCAR-8 > 100 µM | HT-29 > 100 µM | SNB-19 > 100 µM | SK-MEL-28 > 100 µM | XF498 > 100 µM | SW-620 > 100 µM | CAKI-1 > 100 µM | U-251 > 100 µM | M19-MEL > 100 µM | UO-31 > 100 µM | MOLT-4 > 100 µM | SR > 100 µM | NCI-H460 > 100 µM | IGROV-1 > 100 µM | RXF 631 > 100 µM | A549 > 100 µM | SK-OV-3 > 100 µM | SN12C > 100 µM | NCI-H23 > 100 µM | SNB-75 > 100 µM | SF-539 > 100 µM | Malme-3M > 100 µM | HCC 2998 > 100 µM | OVCAR-3 > 100 µM | KM12 > 100 µM | LOX IMVI > 100 µM | NCI-H226 > 100 µM | DLD-1 > 100 µM | DMS-114 > 100 µM | RXF 393 > 100 µM | SK-MEL-2 > 100 µM | DMS-273 > 100 µM | OVCAR-4 > 100 µM | COLO 205 > 100 µM | UACC-257 > 100 µM

COc1ccc2nc(-c3ccccn3)cc(O)c2c1
inactive: CCRF-CEM 51.2 µM | SNB-78 99.3 µM | HOP-18 61.7 µM | M14 24.2 µM | LXFL 529 41.5 µM | UACC-62 32.8 µM | HL-60 34 µM | TK-10 96.4 µM | EKVX 55.3 µM | HOP-62 > 100 µM | OVCAR-5 > 100 µM | OVCAR-8 39.8 µM | HT-29 42.8 µM | SNB-19 > 100 µM | SK-MEL-28 35.5 µM | SW-620 32 µM | M19-MEL 31.8 µM | HOP-92 43.9 µM | UO-31 18.4 µM | MOLT-4 28.8 µM | NCI-H460 34.7 µM | IGROV-1 44.6 µM | RXF 631 85.1 µM | A549 44 µM | SK-OV-3 52.7 µM | SN12C 47 µM | NCI-H23 41.9 µM | SNB-75 18.4 µM | SF-539 30 µM | Malme-3M 24 µM | KM12 26.7 µM | LOX IMVI 41.2 µM | RPMI-8226 37.8 µM | DLD-1 52.6 µM | NCI-H522 20.4 µM | K562 17.4 µM | ACHN 92.5 µM | 786-0 90.2 µM | OVCAR-4 72.3 µM | COLO 205 28 µM | UACC-257 50.7 µM
